Measured values reported in patent EP3301096A1, “BIS-INDOLE DERIVATIVES FOR USE IN THE TREATMENT OF BACTERIAL INFECTIONS” (Heinrich Heine Universität Düsseldorf, priority 2016, dated 2018).

Legend:
M. tuberculosis H37Rv = assay: MIC determination, resazurin microplate assay; type: cell-based; conditions: Mycobacterium tuberculosis, 120 h, five days, range 100-0.78 µM
[1] = tested on: methicillin-resistant Staphylococcus aureus; assay: MIC quantified via the BacTiter-Glo assay; type: cell-based; conditions: methicillin-resistant strain; 24 h
Procedure: (§1) The MICs of compounds according to formulas (2), (3), (4), (7), (11), (12) and (18) were additionally quantified via the BacTiter-Glo™ assay (Promega, Madison, WI, USA). Briefly, after an incubation time of 24 h, each well was resuspended by pipetting, and 50 µL aliquots were transferred into an opaque-walled multiwell plate. Additionally, control wells containing medium without cells to determine background luminescence were prepared. 50 µL BacTiter-Glo™ reagent were added to each well. Contents were mixed and incubated for five minutes at room temperature. Luminescence was measured using a microplate reader. Growth was calculated relative to the background luminescence (0% growth) and a compound-free DMSO control (100% growth).

[2] = tested on: methicillin-sensitive Staphylococcus aureus; assay: MIC quantified via the BacTiter-Glo assay; type: cell-based; conditions: methicillin-sensitive strain; 24 h
Procedure: as §1

[3] = tested on: human fetal lung fibroblast cell line MRC-5; assay: Cytotoxicity, resazurin assay; type: cell-based; conditions: MRC-5 cells, 48 h
Procedure: (§2) The cytotoxicity of the compounds according to formulas (2), (3) and (4) and according to formulas (7), (11), (12) and (18) was determined in vitro using the human monocyte cell line THP-1 (Deutsche Sammlung von Mikroorganismen und Zellkulturen GmbH) and the human fetal lung fibroblast cell line MRC-5 (American Type Culture Collection).
(§3) THP-1 cells were cultured in RPMI 1640 medium containing 10% (v/v) fetal bovine serum (FBS), while MRC-5 cells were incubated in Dulbecco's Modified Eagles Medium (DMEM) containing 10% (v/v) FBS both at 37°C in a humidified atmosphere of 5% CO2. […] Cells treated with DMSO in a final concentration of 1% (v/v) served as DMSO toxicity controls. After an incubation time of 48 h, 10 µL resazurin solution (100 µg/mL) were added per well and incubated for further 3 h at 37°C in a humidified atmosphere of 5% CO2. Fluorescence was quantified using a microplate reader (excitation 540 nm, emission 590 nm). Growth was calculated relative to non-inoculated (i.e. cell-free) (0% growth) and untreated (100% growth) controls in triplicate experiments, respectively. For determination of the therapeutic index of the tested substances, the selectivity index (SI) was determined by the quotient of cytotoxic concentration and MIC. Compounds with SI ≥ 10 were characterized in further experiments.

[4] = tested on: human monocyte cell line THP-1; assay: Cytotoxicity, resazurin assay; type: cell-based; conditions: THP-1 cells, 48 h
Procedure: as §2, §3

[5] = tested on: Staphylococcus aureus MRSA strain ATCC 700699; assay: Time-kill curves in vitro (killing kinetics); type: cell-based; conditions: for bacteria amount: after 6 h at five-fold MIC, inoculum 10^6 CFU/mL; for killing effect: five-fold MIC
[6] = tested on: Methicillin resistant S. aureus (MRSA; ATCC 700699); assay: Resistance development during time-kill kinetics; type: cell-based, Staphylococcus aureus; conditions: after 6 and 24 h of incubation, plated on agar with 5x MIC
Procedure: Additionally, the resistance rate of the cultures was determined after 6 and 24 h of incubation. For this, 20 µL of the cultures were plated on 1 mL MH agar containing the five-fold MIC of the compounds (for the compound according to formula (2) and (4): 2 µM, for the compound according to formula (3): 8 µM). After an incubation time of 24 h at 37°C, the colonies were counted. The resistance rate was determined as quotient of the number of resistant colonies on compound containing agar and the total amount of viable bacteria at the corresponding time points.
Two independent cultures C1 and C2 were tested for each attempt. Compounds were tested at 5x MIC resulting in 0.02-0.08% DMSO final concentration. In an independent experiment, medium was replaced and compounds were freshly added after 6 h, denoted "freshly added" in the Figure. 20 µL of different dilution of the cultures after either 6 or 24 h of incubation were plated out on MH agar containing either no antibiotics, which is denoted (*) or the compounds of formulas (2) and (3) at 5x MIC, respectively.

[7] = tested on: methicillin-resistant S. aureus (MRSA) strain ATCC 700699; assay: Frequency of spontaneous resistant mutants on compound-containing agar; type: cell-based, Staphylococcus aureus; conditions: agar with 3- and 5-fold MIC, 72 h, 37°C
S. aureus ATCC 25923 = assay: MIC by broth microdilution method (CLSI); conditions: Staphylococcus aureus, ATCC25923, 24 h
Procedure: (§4) The compounds were tested for their antibacterial activities against the pathogenic nosocomial strains of Staphylococcus aureus, Enterococcus faecalis Enterococcus faecium, Acinetobacter baumannii. The minimal inhibitory concentration (MIC) was determined by the broth microdilution method according to the recommendations of the Clinical and Laboratory Standards Institute (CLSI) (CLSI M7-A9, 2012). For preparation of the inoculum the growth method was used. Bacterial cells were grown aerobically in Muller Hinton (MH) medium at 37°C and 180 rpm. A preculture was grown until log phase (OD600 nm ∼ 0.5) and then seeded at 5 x 10^4 bacteria/well in a total volume of 100 µL in 96 well round bottom microtiter plates and incubated with serially diluted test substances at a concentration range of 100-0.78 µM. The compounds were screened in two-fold serial dilution. Microplates were incubated aerobically at 37°C for 24 h. MICs were determined by identifying the minimum concentration of the compounds that led to complete inhibition of visual growth of the bacteria.

MRSA ATCC 700699 = assay: MIC by broth microdilution method (CLSI); conditions: for MIC: Staphylococcus aureus, 24 h
Procedure: as §4

E. faecalis ATCC 29212 = assay: MIC by broth microdilution method (CLSI); conditions: Enterococcus faecalis, ATCC29212, 24 h
Procedure: as §4

E. faecalis ATCC 51299 = assay: MIC by broth microdilution method (CLSI); conditions: Enterococcus faecalis, ATCC51299, 24 h
Procedure: as §4

E. faecium ATCC 35667 = assay: MIC by broth microdilution method (CLSI); conditions: Enterococcus faecium, ATCC35667, 24 h
Procedure: as §4

[8] = tested on: VR E. faecium ATCC 700221; assay: MIC by broth microdilution method (CLSI); conditions: Enterococcus faecium, ATCC700221, 24 h
Procedure: as §4

resistant MRSA mutants = assay: Level of resistance of isolated resistant mutants (dose-response); type: cell-based, Staphylococcus aureus

Structure (SMILES) | MIC (M. tuberculosis H37Rv) | inhibition of Staphylococcus aureus (BacTiter-Glo) [1] | inhibition of Staphylococcus aureus (BacTiter-Glo) [2] | cytotoxic (inhibitory) concentration [3] | cytotoxic (inhibitory) concentration [4] | bacteria amount [5] | viability of the culture ([5]; compound freshly added to washed cells after 6 h, initial further decrease) | killing effect [5] | level of resistance in treated cultures [6] | frequency of spontaneous resistant mutants [7] | MIC (S. aureus ATCC 25923) | MIC (MRSA ATCC 700699) | concentrations at which a decreased inhibitory effect could be observed (MRSA ATCC 700699; paradoxical effect, assumed aggregation and precipitation) | MIC (E. faecalis ATCC 29212) | MIC (E. faecalis ATCC 51299) | MIC (E. faecium ATCC 35667) | MIC [8] | amount of surviving bacteria ([5]; after 24 h at five-fold MIC, limit of detection 10^1) | MIC for the mutants relative to the parent MRSA strain (resistant MRSA mutants; mutants 9-RM, 1-RM, 9-RM-5x versus MRSA WT) | resistance of clones resistant against formula (2) towards the tested compound (resistant MRSA mutants; two tested clones (1-RM))
Clc1ccc2[nH]cc(-c3cnc(-c4c[nH]c5ccc(Cl)cc45)cn3)c2c1 [formula (2), 2,5-bis(5-chloro-1H-indole-3-yl)pyrazine] | > 100 µM | effectively inhibited | effectively inhibited | 12.5 µM | 12.5 µM | 10^4 CFU/mL | 10^2 CFU/mL | strong bactericidal killing effect | no significant level of resistance was detectable | 5×10^-7 | > 100 µM | 0.39 µM | ≥ 3.125 µM | > 100 µM | > 100 µM | > 100 µM | > 100 µM |  |  | 
Clc1ccc2[nH]cc(-c3cnc(-c4c[nH]c5ccc(Cl)cc45)nc3)c2c1 [formula (4), 3,3'-(pyrimidine-2,5-diyl)bis(5-chloro-1H-indole)] | 50 µM | effectively inhibited | effectively inhibited | > 12.5 µM | > 12.5 µM | < 10^1 CFU/mL |  | strong bactericidal killing effect |  | 5×10^-5 | 6.25 µM | 0.39 µM |  | 3.12 µM | 12.5 µM | 1.56 µM | 1.56 µM | < 10^1 CFU/mL | 8 fold | showed cross-resistance
